Reference: patent US12285407B2, “Bis-indolylmethane derivatives and uses thereof” (The University of The West Indies, priority 2018, dated 2025)
Where two headings read alike, the source gives them in different places. Each block holds one compound with its values, some of them ahead of it.

Tests used:
Staphylococcus aureus = experiment: Checkerboard synergy (FICI) of antibiotics with SP-BIM; format: cell-based; conditions: Staphylococcus aureus, Staphylococcus aureus; for MIC: 24 h, antibiotic alone, read-out: MIC antibiotic only
Streptococcus pneumoniae [1] = experiment: as above; format: cell-based; conditions: for MIC: 24 h, antibiotic alone, read-out: MIC antibiotic only
Bacillus cereus = experiment: as above; format: cell-based
Enterococcus faecium = experiment: as above; format: cell-based; conditions: Enterococcus faecium, Enterococcus faecium; for MIC: 24 h, antibiotic alone, read-out: MIC antibiotic only
Klebsiella pneumoniae = experiment: as above; format: cell-based; conditions: for MIC: 24 h, antibiotic alone, read-out: MIC antibiotic only
Escherichia coli = experiment: as above; set-up: MIC SP-BIM 13 only / MIC in combination: Antibiotic: unit not given beside the values; conditions: for MIC: 24 h
Candida albicans = experiment: as above; set-up: MIC SP-BIM 13 only / MIC in combination: Antibiotic / MIC antibiotic only: unit not given beside the values
[2] = tested on: Streptococcus pyogenes ATCC 19615; experiment: Broth microdilution MIC of SP-BIMs; format: cell-based; conditions: ATCC19615, SP-BIM alone, read-out: MIC Streptococcus pyogenes ATCC 19615
[3] = tested on: Bacillus cereus ATCC 14579; experiment: Broth microdilution MIC of SP-BIMs; format: cell-based; conditions: ATCC14579, SP-BIM alone, read-out: MIC Bacillus cereus ATCC 14579
[4] = tested on: Enterococcus faecium ATCC 19434; experiment: Broth microdilution MIC of SP-BIMs; format: cell-based; conditions: ATCC19434, SP-BIM alone, read-out: MIC Enterococcus faecium ATCC 19434
[5] = tested on: Corynebacterium diphtheriae ATCC 27010; experiment: Broth microdilution MIC of SP-BIMs; format: cell-based; conditions: ATCC27010, SP-BIM alone, read-out: MIC Corynebacterium diphtheriae ATCC 27010
[6] = tested on: Staphylococcus aureus ATCC 12600; experiment: Broth microdilution MIC of SP-BIMs; format: cell-based; conditions: ATCC12600, SP-BIM alone, read-out: MIC Staphylococcus aureus ATCC 12600
[7] = tested on: Klebsiella pneumoniae ATCC 49472; experiment: Broth microdilution MIC of SP-BIMs; format: cell-based; conditions: ATCC49472, SP-BIM alone, read-out: MIC Klebisella pneumoniae ATCC 49472
[8] = tested on: Escherichia coli ATCC 35218; experiment: Broth microdilution MIC of SP-BIMs; format: cell-based; conditions: ATCC35218, SP-BIM alone, read-out: MIC Escherichia coli ATCC 35218
[9] = tested on: Salmonella typhimurium ATCC 14028; experiment: Broth microdilution MIC of SP-BIMs; format: cell-based; conditions: Salmonella enterica, read-out: MIC Salmonella tvpkimurium ATCC 14028
From the text: Reference microorganisms used in this study included: Bacillus cereus (American Type Culture Collection (ATCC) No. 14579), Streptococcus pyogenes (ATCC No. 19615), Staphylococcus aureus (ATCC No. 12600), Enterococcus faecium (ATCC No. 19434), Corynebacterium diphtheriae (ATCC No. 27010), Escherichia coli (ATCC No. 35218), Salmonella typhimurium (ATCC No. 14028), Pseudomonas aeruginosa (ATCC No. 27853), Klebsiella pneumoniae (ATCC No. 49472), and Candida albicans (ATCC No. 22972).
Prior to each experiment, cultures were streaked onto clean BHI agar plates and incubated at 35° C. for 24 hours. Colonies of the respective cultures were selected and inoculated in phosphate buffer saline (pH 7.5) to a 0.5 McFarland turbidity standard (equivalent to 10^8 CFU mL^−1). The bacterial suspension was then diluted 1:100 in cation adjusted Mueller Hinton Broth (ca-MHB) (Oxoid Ltd, Basingstoke, Hampshire, England).
Stock solutions (50 mg mL^−1) of the SP-BIM test compounds were prepared in DMSO and stored at 4° C. Working preparations of each compound was made up to 1 mg/mL in sterile deionized water with a final DMSO concentration of 10%.
To assess the antibiotic properties of the library of SP-BIMs, the broth microdilution assay was performed in 96-well microplates according to the Clinical and Laboratory Standards Institute 2014 Guidelines (CLSI 2014). The broth microdilution assay was used to determine the minimum inhibitory concentration (MIC). […] Bacterial cells (˜10^6 CFU mL^−1) were inoculated into cation adjusted-Mueller Hinton broth containing the test compound in a twofold serial dilution ranging between 250 μg mL^−1 and 0.02 μg mL^−1. Plates were incubated at 35° C. for 18 hours after which 50 μL of 5% resazurin solution was added to each well. Resazurin is a blue dye which, upon reduction by living cells, turns to a pink resorufin product. Plates were shaken for 1 hour after the addition of the dye. The MIC was recorded as the well with the lowest concentration of test compound where no color change was observed.

[10] = tested on: Pseudomonas aeruginosa ATCC 27853; experiment: Broth microdilution MIC of SP-BIMs; format: cell-based; conditions: ATCC27853, SP-BIM alone, read-out: MIC Pseudomonas aeruginosa ATCC 27853
[11] = tested on: Candida albicans ATCC 22972; experiment: Broth microdilution MIC of SP-BIMs; format: cell-based; conditions: ATCC22972, SP-BIM alone, read-out: MIC Candida albicans ATCC 22972
Streptococcus pneumoniae [12] = experiment: Adjuvant broth microdilution (antibiotic MIC with SP-BIM at 50 μg/mL); format: cell-based; conditions: Streptococcus pneumoniae, Streptococcus pneumonia, SP-BIM at 50 μg mL^−1
[13] = SP-BIM 9 in combination with the labelled antibiotic
[14] = SP-BIM 13 in combination with the labelled antibiotic
[15] = antibiotic in combination with SP-BIM 9
[16] = antibiotic in combination with SP-BIM 13
[17] = Streptococcus pneumonia (title: Streptococcus pyogenes), antibiotic + SP-BIM 9
[18] = Streptococcus pneumoniae, antibiotic + SP-BIM 13
[19] = MIC of the antibiotic in combination with SP-BIM 13

MIC (Staphylococcus aureus; SP-BIM 9 checkerboard): 1 µg/mL | MIC (Staphylococcus aureus; SP-BIM 13 checkerboard): 1 µg/mL | MIC in combination, Antibiotic (Staphylococcus aureus; [15]): 0.5 µg/mL | MIC in combination, Antibiotic (Staphylococcus aureus; [16]): 0.5 µg/mL | MIC (Streptococcus pneumoniae [1]; Streptococcus pneumoniae, Streptococcus pneumonia (title: Streptococcus pyogenes), SP-BIM 9 checkerboard): 2 µg/mL | MIC (Streptococcus pneumoniae [1]; Streptococcus pneumoniae, Streptococcus pneumoniae, SP-BIM 13 checkerboard): 2 µg/mL | MIC in combination, Antibiotic (Streptococcus pneumoniae [1]; Streptococcus pneumoniae, antibiotic in combination with SP-BIM 13): 1 µg/mL | MIC (Bacillus cereus; 24 h, antibiotic alone, SP-BIM 9 checkerboard, read-out: MIC antibiotic only): 8 µg/mL | MIC in combination, SP-BIM 9 (Bacillus cereus; SP-BIM 9 concentration in combination with the labelled antibiotic): 16 µg/mL | MIC in combination, Antibiotic (Bacillus cereus; [15]): 2 µg/mL | MIC (Enterococcus faecium; SP-BIM 9 checkerboard): 8 µg/mL | MIC (Enterococcus faecium; SP-BIM 13 checkerboard): 8 µg/mL | MIC in combination, Antibiotic (Enterococcus faecium; [16]): 1 µg/mL | MIC (Klebsiella pneumoniae; SP-BIM 9 checkerboard): 2 µg/mL | MIC (Klebsiella pneumoniae; SP-BIM 13 checkerboard): 2 µg/mL | MIC in combination, Antibiotic (Klebsiella pneumoniae; [15]): 0.5 µg/mL | MIC in combination, Antibiotic (Klebsiella pneumoniae; [16]): 0.5 µg/mL | MIC (Escherichia coli; read-out: MIC antibiotic only, Escherichia coli, antibiotic alone): 2 µg/mL | MIC (Escherichia coli; read-out: MIC antibiotic only, Escherichia coli, antibiotic alone, SP-BIM 9 checkerboard): 2 µg/mL | MIC in combination: Antibiotic (Escherichia coli; [19]): 1 | MIC (Candida albicans; 24 h, read-out: MIC antibiotic only): 63 µg/mL | MIC in combination: Antibiotic (Candida albicans; [19]): 63
SMILES: O=C(O)c1cn(C2CC2)c2cc(N3CCNCC3)c(F)cc2c1=O [Ciprofloxacin, ciprofloxacin]
FIC of SP-BIM 9 (Staphylococcus aureus; [13]): 0.02 | FIC of SP-BIM 13 (Staphylococcus aureus; [14]): 0.5 | Interpretation (Staphylococcus aureus; antibiotic + SP-BIM 9): Synergy (Synergy: FICI≤0.5) | Σ FIC (Staphylococcus aureus; antibiotic + SP-BIM 9): <0.52 | Interpretation (Staphylococcus aureus; antibiotic + SP-BIM 13): Additive (Additive: FICI>0.5-1.0) | Σ FIC (Staphylococcus aureus; antibiotic + SP-BIM 13): 1.0 | FIC of antibiotic (Staphylococcus aureus; in combination with SP-BIM 9): 0.50 | FIC of antibiotic (Staphylococcus aureus; in combination with SP-BIM 13): 0.5 | FIC of SP-BIM 9 (Streptococcus pneumoniae [1]; Streptococcus pneumonia (title: Streptococcus pyogenes), SP-BIM 9 in combination with the labelled antibiotic): 0.26 | Interpretation (Streptococcus pneumoniae [1]; [17]): Synergy (Synergy: FICI≤0.5) | Σ FIC (Streptococcus pneumoniae [1]; [17]): <0.27 | FIC of antibiotic (Streptococcus pneumoniae [1]; Streptococcus pneumonia (title: Streptococcus pyogenes), in combination with SP-BIM 9): 0.01 | FIC of SP-BIM 13 (Streptococcus pneumoniae [1]; Streptococcus pneumoniae, SP-BIM 13 in combination with the labelled antibiotic): 0.5 | Interpretation (Streptococcus pneumoniae [1]; [18]): Additive (Additive: FICI>0.5-1.0) | Σ FIC (Streptococcus pneumoniae [1]; [18]): <1.0 | FIC of antibiotic (Streptococcus pneumoniae [1]; Streptococcus pneumoniae, in combination with SP-BIM 13): 0.5 | FIC of SP-BIM 9 (Bacillus cereus; [13]): 0.064 | FIC of SP-BIM 13 (Bacillus cereus; [14]): 0.0 | Interpretation (Bacillus cereus; antibiotic + SP-BIM 9): Synergy (Synergy: FICI≤0.5) | Σ FIC (Bacillus cereus; antibiotic + SP-BIM 9): <0.3 | Interpretation (Bacillus cereus; antibiotic + SP-BIM 13): Additive (Additive: FICI>0.5-1.0) | Σ FIC (Bacillus cereus; antibiotic + SP-BIM 13): 1.0 | FIC of antibiotic (Bacillus cereus; in combination with SP-BIM 9): 0.25 | FIC of antibiotic (Bacillus cereus; in combination with SP-BIM 13): 1.00 | FIC of SP-BIM 13 (Enterococcus faecium; [14]): 0.5 | Interpretation (Enterococcus faecium; antibiotic + SP-BIM 13): Additive (Additive: FICI>0.5-1.0) | Σ FIC (Enterococcus faecium; antibiotic + SP-BIM 13): 0.6 | FIC of antibiotic (Enterococcus faecium; in combination with SP-BIM 13): 0.1 | FIC of SP-BIM 9 (Klebsiella pneumoniae; [13]): 0.252 | FIC of SP-BIM 13 (Klebsiella pneumoniae; [14]): 0.1 | Interpretation (Klebsiella pneumoniae; antibiotic + SP-BIM 9): Synergy (Synergy: FICI≤0.5) | Σ FIC (Klebsiella pneumoniae; antibiotic + SP-BIM 9): <0.5 | Interpretation (Klebsiella pneumoniae; antibiotic + SP-BIM 13): Synergy (Synergy: FICI≤0.5) | Σ FIC (Klebsiella pneumoniae; antibiotic + SP-BIM 13): <0.4 | FIC of antibiotic (Klebsiella pneumoniae; in combination with SP-BIM 9): 0.25 | FIC of antibiotic (Klebsiella pneumoniae; in combination with SP-BIM 13): 0.3 | FIC of SP-BIM 9 (Escherichia coli; [13]): 0.128 | FIC of SP-BIM 13 (Escherichia coli; [14]): 0.1 | Interpretation (Escherichia coli; antibiotic + SP-BIM 9): Synergy (Synergy: FICI≤0.5) | Σ FIC (Escherichia coli; antibiotic + SP-BIM 9): <0.4 | Interpretation (Escherichia coli; antibiotic + SP-BIM 13): Additive (Additive: FICI>0.5-1.0) | Σ FIC (Escherichia coli; antibiotic + SP-BIM 13): <0.6 | FIC of antibiotic (Escherichia coli; combination with SP-BIM 13): 0.5 | FIC of antibiotic (Escherichia coli; in combination with SP-BIM 9): 0.25 | FIC of SP-BIM 13 (Candida albicans; [14]): 1.0 | Interpretation (Candida albicans; antibiotic + SP-BIM 13): Indifferent (Indifferent: FICI>1.0-4.0) | Σ FIC (Candida albicans; antibiotic + SP-BIM 13): <2.0 | FIC of antibiotic (Candida albicans; combination with SP-BIM 13): 1.0

SMILES: CN(C)c1ccc(C(c2c[nH]c3ccccc23)c2c[nH]c3ccccc23)cc1 [SP-BIM 2, [bis(indoly-3-yl)-4-dimethylaminophenyl]methane]
MIC [2]: > 250 µg/mL | MIC [3]: > 250 µg/mL | MIC [4]: > 250 µg/mL | MIC [5]: > 250 µg/mL | MIC [6]: > 250 µg/mL | MIC [7]: > 250 µg/mL | MIC [8]: > 250 µg/mL | MIC [9]: 250 µg/mL | MIC [10]: 250 µg/mL | MIC [11]: 250 µg/mL | MIC (Streptococcus pneumoniae [12]; read-out: MIC of Kanamvcin with SP-BIM): 125 µg/mL | MIC (Streptococcus pneumoniae [12]; read-out: MIC of Vancomvcin with SP-BIM): 1 µg/mL
